According to US5292733A, “Cephalosporin compounds” (Lucky Limited, priority 1991, dated 1994):
In brackets after ≈: the same amount, converted by molar mass.

What was measured:
Assay in all cases: Antibacterial activity MIC, two-fold agar dilution
Format in all cases: cell-based
[1] = system: Acinetobacter calcoaceticus ATCC 15473; details: Acinetobacter calcoaceticus ATCC 15473, Muller-Hinton agar, 37° C., 20 hours; for MIC: ATCC15473, read-out: Antibacterial Activity MIC
In short: (§1)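 The minimum inhibitory concentration was measured on Muller-Hinton agar plates holding halving compound concentrations. Plates received a 2 μl spot of strain suspension at 10^7 CFU per ml and were incubated for 20 hours at 37° C.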

[2] = system: Bacillus cereus ATCC 11778; details: Bacillus cereus ATCC 11778, Muller-Hinton agar, 37° C., 20 hours; for MIC: ATCC11778, read-out: Antibacterial Activity MIC
In short: as §1

[3] = system: Bacillus megaterium ATCC 9885; details: Bacillus megaterium ATCC 9885, Muller-Hinton agar, 37° C., 20 hours; for MIC: Priestia megaterium, ATCC9885, read-out: Antibacterial Activity MIC
In short: as §1

[4] = system: Citrobacter freundii ATCC 8090; details: Citrobacter freundii ATCC 8090, Muller-Hinton agar, 37° C., 20 hours; for MIC: ATCC8090, read-out: Antibacterial Activity MIC
In short: as §1

[5] = system: Enterobacter aerogenes ATCC 29751; details: Enterobacter aerogenes ATCC 29751, Muller-Hinton agar, 37° C., 20 hours; for MIC: Klebsiella aerogenes, ATCC29751, read-out: Antibacterial Activity MIC
In short: as §1

[6] = system: Enterobacter cloacae ATCC 27508; details: Enterobacter cloacae ATCC 27508, Muller-Hinton agar, 37° C., 20 hours; for MIC: ATCC27508, read-out: Antibacterial Activity MIC
In short: as §1

[7] = system: Escherichia coli ATCC 10536; details: 37° C., 20 hours; for MIC: ATCC10536, Muller-Hinton agar
In short: as §1

[8] = system: Escherichia coli ATCC 25922; details: 37° C., 20 hours; for MIC: ATCC25922, Muller-Hinton agar
In short: as §1

[9] = system: Klebsiella pneumoniae ATCC 10031; details: Klebsiella pneumoniae ATCC 10031, Muller-Hinton agar, 37° C., 20 hours; for MIC: ATCC10031, read-out: Antibacterial Activity MIC
In short: as §1

[10] = system: Micrococcus luteus ATCC 9341; details: Micrococcus luteus ATCC 9341, Muller-Hinton agar, 37° C., 20 hours; for MIC: ATCC9341, read-out: Antibacterial Activity MIC
In short: as §1

[11] = system: Morganella morganii ATCC 8076h; details: Muller-Hinton agar, 37° C., 20 hours; for MIC: ATCC8076H
In short: as §1

[12] = system: Proteus mirabilis ATCC 25933; details: Proteus mirabilis ATCC 25933, Muller-Hinton agar, 37° C., 20 hours; for MIC: ATCC25933, read-out: Antibacterial Activity MIC
In short: as §1

[13] = system: Proteus vulgaris ATCC 6059; details: Proteus vulgaris ATCC 6059, Muller-Hinton agar, 37° C., 20 hours; for MIC: ATCC6059, read-out: Antibacterial Activity MIC
In short: as §1

[14] = system: Providencia rettgeri ATCC 9250; details: 37° C., 20 hours; for MIC: ATCC9250, Muller-Hinton agar
In short: as §1

[15] = system: Pseudomonas aeruginosa ATCC 10145; details: Pseudomonas aeruginosa ATCC 10145, Muller-Hinton agar, 37° C., 20 hours; for MIC: ATCC10145, read-out: Antibacterial Activity MIC
In short: as §1

[16] = system: Pseudomonas aeruginosa ATCC 25619; details: Pseudomonas aeruginosa ATCC 25619, Muller-Hinton agar, 37° C., 20 hours; for MIC: ATCC25619, read-out: Antibacterial Activity MIC
In short: as §1

[17] = system: Pseudomonas aeruginosa ATCC 27853; details: Pseudomonas aeruginosa ATCC 27853, Muller-Hinton agar, 37° C., 20 hours; for MIC: ATCC27853, read-out: Antibacterial Activity MIC
In short: as §1

[18] = system: Salmonella typhimurium ATCC 14028; details: Salmonella typhimurium ATCC 14028, Muller-Hinton agar, 37° C., 20 hours; for MIC: Salmonella enterica, read-out: Antibacterial Activity MIC
In short: as §1

[19] = system: Serratia marcescens ATCC 27117; details: Serratia marcescens ATCC 27117, Muller-Hinton agar, 37° C., 20 hours; for MIC: ATCC27117, read-out: Antibacterial Activity MIC
In short: as §1

[20] = system: Shigella flexneri ATCC 11836; details: 37° C., 20 hours; for MIC: ATCC11836, Muller-Hinton agar
In short: as §1

[21] = system: Shigella sonnei ATCC 11060; details: 37° C., 20 hours; for MIC: ATCC11060, Muller-Hinton agar
In short: as §1

[22] = system: Staphylococcus aureus ATCC 10537; details: Staphylococcus aureus ATCC 10537, Muller-Hinton agar, 37° C., 20 hours; for MIC: ATCC10537, read-out: Antibacterial Activity MIC
In short: as §1

[23] = system: Staphylococcus aureus ATCC 6538p; details: Staphylococcus aureus ATCC 6538p, Muller-Hinton agar, 37° C., 20 hours; for MIC: ATCC6538P, read-out: Antibacterial Activity MIC
In short: as §1

[24] = system: Staphylococcus epidermidis ATCC 12228; details: Staphylococcus epidermidis ATCC 12228, Muller-Hinton agar, 37° C., 20 hours; for MIC: ATCC12228, read-out: Antibacterial Activity MIC
In short: as §1

[25] = system: Streptococcus faecalis ATCC 29212; details: Streptococcus faecalis ATCC 29212, Muller-Hinton agar, 37° C., 20 hours; for MIC: Enterococcus faecalis, ATCC29212, read-out: Antibacterial Activity MIC
In short: as §1

Q: With “(6R,7R)-7-[(Z)-2-(2-aminothiazol-4-yl)-2-(2-propyn-1-oxyimino)acetamido]-3-(2,6-diamino-3-methylpyrimidinium-4-yl)thiomethyl-3-cephem-4-carboxylate [Compound I-9]” as the compound, how does the “Antibacterial Activity MIC” value [1] read?
A: The value was 2 µg/mL.

Q: And the “Antibacterial Activity MIC” value [2]?
A: The value was 64 µg/mL.

Q: What about the “Antibacterial Activity MIC” value [3] of the same compound?
A: The value was 0.13 µg/mL.

Q: What about the “Antibacterial Activity MIC” value [4] of the same compound?
A: The value was 0.13 µg/mL.

Q: What about the “Antibacterial Activity MIC” value [5] of the same compound?
A: The value was 0.5 µg/mL.

Q: What about the “Antibacterial Activity MIC” value [6] of the same compound?
A: The value was 0.13 µg/mL.

Q: And the “Antibacterial Activity MIC” value ([7]; Muller-Hinton agar)?
A: Its value is 0.016 µg/mL.

Q: And the “Antibacterial Activity MIC” value ([8]; Muller-Hinton agar)?
A: Its value is 0.063 µg/mL.

Q: And the “Antibacterial Activity MIC” value [9]?
A: Its value is 0.063 µg/mL.

Q: What about the “Antibacterial Activity MIC” value [10] of the same compound?
A: The value was 0.063 µg/mL.

Q: And the “Antibacterial Activity MIC” value [11]?
A: Its value is “<= 0.008 μg/ml”.

Q: And the “Antibacterial Activity MIC” value [12]?
A: The value was 0.016 µg/mL.

Q: What about the “Antibacterial Activity MIC” value [13] of the same compound?
A: The value was 0.016 µg/mL.

Q: What about the “Antibacterial Activity MIC” value ([14]; Muller-Hinton agar) of the same compound?
A: The value was “<= 0.008 μg/ml”.

Q: And the “Antibacterial Activity MIC” value [15]?
A: Its value is 16 µg/mL.

Q: What about the “Antibacterial Activity MIC” value [16] of the same compound?
A: Its value is 2 µg/mL.

Q: What about the “Antibacterial Activity MIC” value [17] of the same compound?
A: Its value is 8 µg/mL.

Q: What about the “Antibacterial Activity MIC” value [18] of the same compound?
A: The value was 0.5 µg/mL.

Q: What about the “Antibacterial Activity MIC” value [19] of the same compound?
A: Its value is 0.5 µg/mL.

Q: And the “Antibacterial Activity MIC” value ([20]; Muller-Hinton agar)?
A: The value was 0.13 µg/mL.

Q: And the “Antibacterial Activity MIC” value ([21]; Muller-Hinton agar)?
A: The value was 0.13 µg/mL.

Q: What about the “Antibacterial Activity MIC” value [22] of the same compound?
A: The value was 0.25 µg/mL.

Q: What about the “Antibacterial Activity MIC” value [23] of the same compound?
A: The value was 0.25 µg/mL.

Q: And the “Antibacterial Activity MIC” value [24]?
A: The value was 0.5 µg/mL.

Q: And the “Antibacterial Activity MIC” value [25]?
A: The value was > 128 µg/mL.

Q: How did the MIC [1] turn out when `CC(C)(O/N=C(\C(=O)NC1C(=O)N2C(C(=O)[O-])=C(CSc3nc(N)nc(N)[n+]3-c3ccccc3)CS[C@H]12)c1csc(N)n1)C(=O)O` (stereo partly drawn) [Compound I-25, 7-[(Z)-2-(2-aminothiazol-4-yl) -2-(2-carboxyprop-2-oxyimino)acetamido]-3-(4,6-diamino-1-phenyl-1,3,5-triazinium-2-yl)thiomethyl-3-cephem-4-carboxylate] was run?
A: Its MIC is 16 µg/mL (≈ 23.3 µM).

Q: And the MIC [2]?
A: Its MIC is 128 µg/mL (≈ 186 µM).

Q: What about the MIC [3] of the same compound?
A: The MIC was 0.5 µg/mL (≈ 0.728 µM).

Q: And the MIC [4]?
A: Its MIC is 0.5 µg/mL (≈ 0.728 µM).

Q: And the MIC [5]?
A: Its MIC is 2 µg/mL (≈ 2.91 µM).

Q: And the MIC [6]?
A: Its MIC is 0.13 µg/mL (≈ 0.189 µM).

Q: What about the MIC [7] of the same compound?
A: The MIC was 0.13 µg/mL (≈ 0.189 µM).

Q: And the MIC [8]?
A: Its MIC is 0.25 µg/mL (≈ 0.364 µM).

Q: What about the MIC [9] of the same compound?
A: The MIC was 0.25 µg/mL (≈ 0.364 µM).

Q: And the MIC [10]?
A: Its MIC is 0.5 µg/mL (≈ 0.728 µM).

Q: What about the MIC [11] of the same compound?
A: The MIC was ≤ 0.008 µg/mL.

Q: What about the MIC [12] of the same compound?
A: The MIC was 0.13 µg/mL (≈ 0.189 µM).

Q: And the MIC [13]?
A: Its MIC is 0.13 µg/mL (≈ 0.189 µM).

Q: And the MIC [14]?
A: The MIC was ≤ 0.008 µg/mL.

Q: What about the MIC [15] of the same compound?
A: Its MIC is 4 µg/mL (≈ 5.82 µM).

Q: What about the MIC [16] of the same compound?
A: The MIC was 1 µg/mL (≈ 1.46 µM).

Q: What about the MIC [17] of the same compound?
A: Its MIC is 2 µg/mL (≈ 2.91 µM).

Q: What about the MIC [18] of the same compound?
A: Its MIC is 0.25 µg/mL (≈ 0.364 µM).

Q: What about the MIC [19] of the same compound?
A: The MIC was 0.13 µg/mL (≈ 0.189 µM).

Q: And the MIC [20]?
A: The MIC was 0.13 µg/mL (≈ 0.189 µM).

Q: What about the MIC [21] of the same compound?
A: The MIC was 0.25 µg/mL (≈ 0.364 µM).

Q: What about the MIC [22] of the same compound?
A: Its MIC is 4 µg/mL (≈ 5.82 µM).

Q: And the MIC [23]?
A: The MIC was 4 µg/mL (≈ 5.82 µM).

Q: And the MIC [24]?
A: Its MIC is 4 µg/mL (≈ 5.82 µM).

Q: And the MIC [25]?
A: The MIC was > 128 µg/mL.

Q: What does the source list for `CCO/N=C(\C(=O)N[C@@H]1C(=O)N2C(C(=O)[O-])=C(CSc3cc(N)nc(N)[n+]3CC)CS[C@H]12)c1nsc(N)n1` [Compound I-6, (6R,7R)-7-[(Z)-2-(5-amino-1,2,4-thiadiazol-3-yl)-2-(ethoxyimino)acetamido]-3-(2,6-diamino-3-ethylpyrimidinium-4-yl)thiomethyl-3-cephem-4-carboxylate]?
A: MIC [1]: 8 µg/mL (≈ 13.8 µM); MIC [2]: 64 µg/mL (≈ 110 µM); MIC [3]: 0.13 µg/mL (≈ 0.224 µM); MIC [4]: 0.13 µg/mL (≈ 0.224 µM); MIC [5]: 0.5 µg/mL (≈ 0.861 µM); MIC [6]: 0.063 µg/mL (≈ 0.108 µM); MIC [7]: 0.13 µg/mL (≈ 0.224 µM); MIC [8]: 0.13 µg/mL (≈ 0.224 µM); MIC [9]: 0.031 µg/mL (≈ 0.0534 µM); MIC [10]: 0.063 µg/mL (≈ 0.108 µM); MIC [11]: ≤ 0.008 µg/mL; MIC [12]: 0.016 µg/mL (≈ 0.0276 µM); MIC [13]: 0.031 µg/mL (≈ 0.0534 µM); MIC [14]: ≤ 0.008 µg/mL; MIC [15]: 16 µg/mL (≈ 27.6 µM); MIC [16]: 2 µg/mL (≈ 3.44 µM); MIC [17]: 16 µg/mL (≈ 27.6 µM); MIC [18]: 0.5 µg/mL (≈ 0.861 µM); MIC [19]: 0.25 µg/mL (≈ 0.431 µM); MIC [20]: 0.063 µg/mL (≈ 0.108 µM); MIC [21]: 0.25 µg/mL (≈ 0.431 µM); MIC [22]: 1 µg/mL (≈ 1.72 µM); MIC [23]: 1 µg/mL (≈ 1.72 µM); MIC [24]: 0.5 µg/mL (≈ 0.861 µM); MIC [25]: > 128 µg/mL
